Measured values from ChEMBL document CHEMBL2069220, “Targeting peroxisome proliferator-activated receptors (PPARs): development of modulators” (J Med Chem, 2012).

Assays:
Homo sapiens [1] = species on record: Homo sapiens; assay: Selectivity ratio for PPRalpha over PPRgamma
Homo sapiens [2] = species on record: Homo sapiens; assay: Selectivity ratio for PPRbeta/delta over PPRgamma
[3] = molecular target: T1, Peroxisome proliferator-activated receptor gamma (Homo sapiens, UniProt P37231); assay: Binding affinity to PPARgamma
T1 sequence (P37231 whole entry): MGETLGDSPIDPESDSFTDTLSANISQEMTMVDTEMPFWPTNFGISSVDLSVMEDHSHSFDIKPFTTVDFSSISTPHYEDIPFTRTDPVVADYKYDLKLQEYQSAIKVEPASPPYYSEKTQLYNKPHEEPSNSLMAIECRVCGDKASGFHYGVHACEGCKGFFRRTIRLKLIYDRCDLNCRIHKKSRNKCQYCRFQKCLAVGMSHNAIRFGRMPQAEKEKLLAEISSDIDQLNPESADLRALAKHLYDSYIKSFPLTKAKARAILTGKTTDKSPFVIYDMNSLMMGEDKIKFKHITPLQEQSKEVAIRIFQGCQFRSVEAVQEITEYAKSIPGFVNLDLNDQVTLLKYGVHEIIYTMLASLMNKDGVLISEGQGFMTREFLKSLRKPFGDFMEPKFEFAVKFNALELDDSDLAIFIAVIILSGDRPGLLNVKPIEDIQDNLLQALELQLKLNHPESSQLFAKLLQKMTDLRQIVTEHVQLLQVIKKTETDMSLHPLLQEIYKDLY

[4] = molecular target: T2, Peroxisome proliferator-activated receptor alpha (Homo sapiens, UniProt Q07869); assay: Agonist activity at PPARalpha; assay type: functional
T2 sequence (Q07869 whole entry): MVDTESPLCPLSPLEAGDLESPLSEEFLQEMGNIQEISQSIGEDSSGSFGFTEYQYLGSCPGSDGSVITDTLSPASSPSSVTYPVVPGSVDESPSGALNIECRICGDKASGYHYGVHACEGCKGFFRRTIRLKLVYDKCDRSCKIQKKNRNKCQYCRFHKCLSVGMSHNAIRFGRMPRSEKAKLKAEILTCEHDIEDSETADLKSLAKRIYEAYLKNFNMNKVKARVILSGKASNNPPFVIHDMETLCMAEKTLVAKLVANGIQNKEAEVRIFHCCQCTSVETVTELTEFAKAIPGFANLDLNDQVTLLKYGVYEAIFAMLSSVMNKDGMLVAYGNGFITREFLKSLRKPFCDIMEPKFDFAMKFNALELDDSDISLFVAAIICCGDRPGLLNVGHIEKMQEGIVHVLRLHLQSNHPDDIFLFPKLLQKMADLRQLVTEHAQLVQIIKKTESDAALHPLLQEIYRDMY

Mus musculus [5] = species on record: Mus musculus; assay: Selectivity ratio for mouse PPRalpha over mouse PPRbeta/delta
Homo sapiens [6] = species on record: Homo sapiens; assay: Selectivity ratio for human PPRalpha over human PPRbeta/delta
Homo sapiens [7] = species on record: Homo sapiens; assay: Selectivity ratio for human PPRgamma over human PPRbeta/delta
Mus musculus [8] = species on record: Mus musculus; assay: Selectivity ratio for mouse PPRgamma to mouse PPRbeta/delta

In the case of `CN(CCOc1ccc(C[C@H](Nc2ccccc2C(=O)c2ccccc2)C(=O)O)cc1)c1ccccn1`, the Selectivity ratio (Homo sapiens [1]) is reported as over 1000 and the Selectivity ratio (Homo sapiens [2]) is reported as over 1000.

Compound `COC(=O)c1ccccc1N[C@@H](Cc1ccc(OCCc2nc(-c3ccccc3)oc2C)cc1)C(=O)O` has a Selectivity ratio (Homo sapiens [1]) of over 1000 and a Selectivity ratio (Homo sapiens [2]) of over 1000.

For `CC/C=C\C/C=C\C/C=C\C/C=C\C/C=C\CCCC(=O)O` [ICOSAPENT], the Kd [3] was 2000 nM.

`CCCCC/C=C\C=C\C(O)CCCCCCCC(=O)O` (stereo not drawn) showed a Kd [3] of 2000 nM.

With `CCCCCC(O)/C=C\C=C/CCCCCCCC(=O)O` (stereo not drawn) the Kd [3] was 2000 nM.

With `CC(C)(Oc1ccc(CCOc2ccc(/C=C/C(=O)c3cc(Cl)ccc3O)cc2)cc1)C(=O)O` the EC50 [4] was 60 nM.

`CCCCC/C=C/C=C1/C(=O)C=C[C@@H]1C/C=C\CCCC(=O)O` gave a Kd [3] of 2000 nM.

`CCCc1c(OCCCOc2ccc(OCC(=O)O)cc2)ccc(C(C)=O)c1O` showed a Selectivity ratio (Mus musculus [5]) of over 100, a Selectivity ratio (Homo sapiens [6]) of over 100 and a Selectivity ratio (Homo sapiens [7]) of over 100. It also gave a Selectivity ratio (Mus musculus [8]) of over 100.
